# Publication PMC8501799, “Constitutive signal bias mediated by the human GHRHR splice variant 1” (Proceedings of the National Academy of Sciences of the …, 2021)
# Experiments:
# WT GHRHR = target: T1, WT GHRHR (Homo sapiens, UniProt Q02643); assay: cAMP accumulation; format: cell-based; details: for Emax: HEK-293T, HEK293T; for ΔLog (τ/KA): operational model, τ corrected by cell surface expression
# T1 construct: Comparison of SV1 with full-length or truncated GHRHR that lacks ECD or the first 89 residues (B); expressed in transfected cells; host or cells: HEK293T
# T1 sequence (Q02643 23-423): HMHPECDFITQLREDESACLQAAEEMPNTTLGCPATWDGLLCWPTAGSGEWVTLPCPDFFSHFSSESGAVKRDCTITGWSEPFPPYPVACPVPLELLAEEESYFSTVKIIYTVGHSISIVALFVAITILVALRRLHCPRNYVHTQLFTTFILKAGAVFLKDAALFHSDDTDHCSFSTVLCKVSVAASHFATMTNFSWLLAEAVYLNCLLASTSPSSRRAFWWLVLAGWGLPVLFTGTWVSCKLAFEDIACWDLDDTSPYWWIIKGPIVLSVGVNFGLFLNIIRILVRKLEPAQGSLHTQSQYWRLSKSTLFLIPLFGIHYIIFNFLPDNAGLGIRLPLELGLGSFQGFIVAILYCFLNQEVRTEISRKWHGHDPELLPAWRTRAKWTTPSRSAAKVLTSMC
# Procedure: (§1) GHRH-stimulated cAMP accumulation was measured by a LANCE Ultra cAMP kit (PerkinElmer). Briefly, HEK293T cells (24 h after transfection with SV1 or GHRHR) or prostate cancer cells were digested by 0.2% (wt/vol) EDTA and washed once with Dulbecco’s phosphate-buffered saline (PBS). Cells were then resuspended with stimulation buffer (Hanks’ balanced salt solution [HBSS] supplemented with 5 mM HEPES, 0.5 mM IBMX, and 0.1% [wt/vol] bovine serum albumin [BSA], pH 7.4) to a density of 0.6 million cells per milliliter and added to 384-well white plates (3,000 cells per well). […] The reaction was stopped by adding 5 μL Eu-cAMP tracer and 5 μL ULight-anti-cAMP. After 1 h RT incubation, TR-FRET signals (excitation: 320 nm, emission: 615 and 665 nm) were measured by an Envision plate reader (PerkinElmer). cAMP concentrations were interpolated by a standard curve.
# (§2) All functional study data were analyzed using Prism 7 (GraphPad) and presented as means ± SEM from at least three independent experiments. Concentration-response curves were evaluated with a three-parameter logistic equation. The significance was determined with either two-tailed Student’s t test or one-way ANOVA, and P < 0.05 is considered statistically significant.
# (§3) Table S2. Effects of residue mutation or truncation in the ECD of GHRHR on GHRH-induced cAMP […]
# (§4) Mutant pEC50 Emax (% WT GHRHR) expression ΔLog (τ/KA) […]
# (§5) cAMP accumulation data were analyzed using a three-parameter logistic equation to determine pEC50 and Emax values. pEC50 is the negative logarithm of the molar concentration of agonist that induced half the maximal response. Emax for mutants is expressed as a percentage of the WT GHRHR. Data were analyzed by nonlinear regression using the operational model equation to determine t he logR values (logτ/KA, i.e., logarithm of the transduction ratio). τ is the effi cacy value of the agonist and was corrected by cell surface expression of the receptor. KA is dissociation constant. Changes in transduction ratio (ΔlogR) were calculated to determine the relative effectiveness of the mutants. All values are means ± S.E.M. of at le ast three ind ep en dent experiments (n = 3-5) conducted in quadruplicate. Statistical analysis was carried out by comparing the control responses in the WT GHRHR. **, P < 0.01 and ***, P < 0.001, determined by one-way […]
# (§6) Table S4. Effects of residue mutation in the ligand-binding pocket of SV1 on GHRH-induced cAMP […]
# (§7) Mutant pEC50 Emax Cell surface expression ΔLog (τ/KA) […]
# (§8) effectiveness of the mutants. All values are means ± S.E.M. of four independent experiments (n = 4) conducted in quadruplicate. Statistical analysis was carried out by comparing the control responses in the WT-SV1. *, P < 0.05, **, P < 0.01 and ***, P < 0.001, determined by one-way
# SV1 = target: T2, SV1 (Homo sapiens, UniProt Q02643); assay: cAMP accumulation; format: cell-based; details: mean ± SEM; for Emax: HEK-293T, HEK293T; for ΔLog (τ/KA): operational model, τ corrected by cell surface expression
# T2 sequence (Q02643 90-423 limits assumed): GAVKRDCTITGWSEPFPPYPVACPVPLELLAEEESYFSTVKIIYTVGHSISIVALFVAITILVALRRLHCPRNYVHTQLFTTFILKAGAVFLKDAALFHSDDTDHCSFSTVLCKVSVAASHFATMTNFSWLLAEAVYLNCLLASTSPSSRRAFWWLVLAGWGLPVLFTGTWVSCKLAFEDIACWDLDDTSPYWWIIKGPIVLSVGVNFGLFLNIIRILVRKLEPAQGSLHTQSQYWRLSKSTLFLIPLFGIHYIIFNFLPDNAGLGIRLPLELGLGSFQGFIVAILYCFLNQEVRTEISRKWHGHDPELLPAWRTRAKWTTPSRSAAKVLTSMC
# Procedure: as §1, §2, §3, §4, §5, §6, §7, §8
# GHRHR Δ52 = target: T3, GHRHR Δ52 (Homo sapiens, UniProt Q02643); assay: cAMP accumulation; format: cell-based; details: Table S2, mean ± SEM
# T3 construct: expressed in transfected cells; host or cells: HEK293T
# Procedure: as §1, §2, §3, §4
# (§9) cAMP accumulation data were analyzed using a three-parameter logistic equation to determine pEC50 and Emax values. pEC50 is the negative logarithm of the molar concentration of agonist that induced half the maximal response. Emax for mutants is expressed as a percentage of the WT GHRHR. Data were analyzed by nonlinear regression using the operational model equation to determine t he logR values (logτ/KA, i.e., logarithm of the transduction ratio). τ is the effi cacy value of the agonist and was corrected by cell surface expression of the receptor. KA is dissociation constant. Changes in transduction ratio (ΔlogR) were calculated to determine the relative effectiveness of the mutants. All values are means ± S.E.M. of at le ast three ind ep en dent experiments (n = 3-5) conducted in quadruplicate. Statistical analysis was carried out by comparing the control responses in the WT GHRHR. **, P < 0.01 and ***, P < 0.001, determined by one-way
# GHRHR F82A = target: T4, GHRHR F82A (Homo sapiens, UniProt Q02643, F82A); assay: cAMP accumulation; format: cell-based; details: Table S2, mean ± SEM
# T4 construct: expressed in transfected cells; host or cells: HEK293T
# T4 sequence (Q02643 23-423 F82A): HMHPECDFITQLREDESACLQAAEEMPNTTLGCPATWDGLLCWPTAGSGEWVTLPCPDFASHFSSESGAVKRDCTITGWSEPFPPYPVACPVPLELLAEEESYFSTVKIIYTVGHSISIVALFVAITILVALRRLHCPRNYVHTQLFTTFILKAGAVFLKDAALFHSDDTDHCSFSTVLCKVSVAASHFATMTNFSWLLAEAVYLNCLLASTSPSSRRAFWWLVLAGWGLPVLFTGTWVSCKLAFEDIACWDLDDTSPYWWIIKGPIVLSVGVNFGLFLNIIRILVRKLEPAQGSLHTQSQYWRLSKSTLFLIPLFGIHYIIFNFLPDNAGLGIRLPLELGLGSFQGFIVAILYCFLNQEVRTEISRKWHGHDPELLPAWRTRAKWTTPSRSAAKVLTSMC
# Procedure: as §1, §2, §3, §4, §9
# GHRHR L34A = target: T5, GHRHR L34A (Homo sapiens, UniProt Q02643, L34A); assay: cAMP accumulation; format: cell-based; details: Table S2, mean ± SEM
# T5 construct: expressed in transfected cells; host or cells: HEK293T
# T5 sequence (Q02643 23-423 L34A): as the sequence (Q02643 23-423 F82A) above, with L12A, A60F counted along it
# Procedure: as §1, §2, §3, §4, §9
# SV1 mutants = assay: cAMP accumulation, peptide-binding pocket mutants of SV1; format: cell-based, human; details: impairing contacts in the peptide-binding pocket; HEK293T; Fig. 4D
# Procedure: as §1
# [1] = Table S4, n = 4 in quadruplicate
# [2] = HEK-293T, HEK293T, n = 3-5 in quadruplicate
# [3] = operational model, τ corrected by cell surface expression, relative to WT GHRHR
smiles,measurement,setting,value
"CC[C@H](C)[C@H](NC(=O)[C@H](C)NC(=O)[C@H](CC(=O)O)NC(=O)[C@H](C)NC(=O)[C@@H](N)Cc1ccc(O)cc1)C(=O)N[C@@H](Cc1ccccc1)C(=O)N[C@H](C(=O)N[C@@H](CC(N)=O)C(=O)N[C@@H](CO)C(=O)N[C@@H](Cc1ccc(O)cc1)C(=O)N[C@@H](CCCNC(=N)N)C(=O)N[C@@H](CCCCN)C(=O)N[C@H](C(=O)N[C@@H](CC(C)C)C(=O)NCC(=O)N[C@@H](CCC(N)=O)C(=O)N[C@@H](CC(C)C)C(=O)N[C@@H](CO)C(=O)N[C@@H](C)C(=O)N[C@@H](CCCNC(=N)N)C(=O)N[C@@H](CCCCN)C(=O)N[C@@H](CC(C)C)C(=O)N[C@@H](CC(C)C)C(=O)N[C@@H](CCC(N)=O)C(=O)N[C@@H](CC(=O)O)C(=O)N[C@H](C(=O)N[C@@H](CCSC)C(=O)N[C@@H](CO)C(=O)N[C@@H](CCCNC(=N)N)C(=O)N[C@@H](CCC(N)=O)C(=O)N[C@@H](CCC(N)=O)C(=O)NCC(=O)N[C@@H](CCC(=O)O)C(=O)N[C@@H](CO)C(=O)N[C@@H](CC(N)=O)C(=O)N[C@@H](CCC(N)=O)C(=O)N[C@@H](CCC(=O)O)C(=O)N[C@@H](CCCNC(=N)N)C(=O)NCC(=O)N[C@@H](C)C(=O)N[C@@H](CCCNC(=N)N)C(=O)N[C@@H](C)C(=O)N[C@@H](CCCNC(=N)N)C(=O)N[C@@H](CC(C)C)C(N)=O)[C@@H](C)CC)C(C)C)[C@@H](C)O [GHRH, growth hormone–releasing hormone]",Emax,WT GHRHR; [1],100%
same,Emax,"WT GHRHR; Table S2, mean ± SEM, n = 3-5 in quadruplicate",100 ± 1.81%
same,ΔLog (τ/KA),"WT GHRHR; Table S2, relative to WT GHRHR, mean ± SEM",0 ± 0.05
same,ΔLog (τ/KA),"WT GHRHR; Table S4, mean ± SEM, n = 4",0.00 ± 0.09
same,Emax,SV1; [1],102 ± 2.28%
same,Emax,"SV1; Table S2, n = 3-5 in quadruplicate",105 ± 2.2%
same,ΔLog (τ/KA),"SV1; Table S2, relative to WT GHRHR",-2.98 ± 0.04
same,ΔLog (τ/KA),"SV1; Table S4, n = 4",-3.93 ± 0.10
same,Emax,GHRHR Δ52; [2],106 ± 1.62%
same,ΔLog (τ/KA),GHRHR Δ52; [3],-2.83 ± 0.03
same,Emax,GHRHR F82A; [2],99.8 ± 1.36%
same,ΔLog (τ/KA),GHRHR F82A; [3],-0.53 ± 0.05
same,Emax,GHRHR L34A; [2],101 ± 2.23%
same,ΔLog (τ/KA),GHRHR L34A; [3],-0.78 ± 0.06
same,potency of GHRH-induced cAMP accumulation,SV1 mutants,dramatically decreased the potency
